# Data: patent publication US6365628B1 (Thia Medica AS, priority 1998, dated 2002)
# Assays:
# [1] = test system: obese Zucker (fa/fa) rats; experiment: Liver mitochondrial fatty acid oxidation, CPT-I and CPT-II after TTA feeding (Example 16); type: in vivo, rat; details: chow with 0.15% TTA
# Experimental: (§1) Freshly isolated livers from individual old Zucker rats, were homogenised in ice-cold sucrose buffer (0.25 M sucrose, 10 mM HEPES (pH 7.4) and 2 mM EDTA). Post-nuclear and mitochondrial fractions were prepared using preparative differential centrifugation according to DeDuve et al. (De Duve, C., et al., Biochem. J., 60, 604-617 1955.) Modifications, purity and yield were as described earlier (Garras, A., et al., Biochim. Biophys. Acta, 1255, 154-160 1995.). Acid soluble products were measured in post-nuclear and mitochondrial enriched fractions, using [1-^14C]-palmitoyl-CoA and [1-^14C]-palmitoyl-L-carnitine (Radiochemical Centre, Amersham, England) as substrates as described earlier (Willumsen, N., et al., J. Lipid Res., 34, 13-22 1993. Carnitine palmitoyltransferase-I and -II activities were measured in the post-nuclear and mitochondrial fractions essentially as described by Bremer (Bremer, J., Biochim. Biophys. Acta, 665, 628-631 1981.) and 3-hydroxy-3-methylglutharyl-CoA synthase was measured according to Clinkenbeard et al. (Clinkenbeard, K. D., et al., J. Biol. Chem, 250, 3108-3116 1975.) in the mitochondrial fractions.
# RNA extraction (Chomczynski, P., et al., Anal. Biochem., 162, 156-159 1987.), Northern blot analysis and slot blotting of RNA onto nylon filters, and hybridisation to immobilised RNA were performed as earlier described (Vaagenes, H., et al., Biochem. Pharmacol., 56, 1571-1582 1998.). […]
# Obese Zucker (fa/fa) rats were given a standard chow either with (n=6) or without (n=5) 0.15% TTA. […] Fatty acid oxidation rates were measured using [1-^14C]-palmitoyl CoA or [1-^14C]-palmitoyl-L-carnitine as substrates (A) CPT-I (B) and CPT-II (C) were measured in the mitochondrial factions. […] The relative mRNA levels were determined by densiometric scanning of the autoradiograms and the different mRNA levels were normalised to the respective 28S rRNA and the means for the controls were set to 1. […] Values are expressed as the mean±S.D.
# [2] = test system: chinese hamster ovary cells; experiment: Chromosomal aberrations in cultured chinese hamster ovary cells; type: cell-based; details: doses tested 12-140 mg/ml
# old obese Zucker rats = experiment: Plasma free fatty acids, ketone bodies and liver HMG-CoA synthase in old obese Zucker rats (Table 7); type: in vivo, rat; details: 21 week-old male obese Zucker (fa/fa) rats, standard diet with 0.15% TTA for 15 days, means ± SD
# Experimental: Glucose (GLU, Boehringer Mannheim, Germany), free fatty acids (NEFA, C ACS-ACOD kit; Wako Chemicals, Dalton, USA) and b-hydroxybutyrate (310-A kit; Sigma Diagnostics Inc., St. Louis, USA) concentrations were measured using enzymatic methods. Insulin concentrations were determined with radioimmunoassay by (CIS bio International, Gif sur Yvette, France) using rat insulin as standard in the Zucker rats. In the Wistar Charles River rats, plasma glucose concentrations were measured with the aid of Beckman Glucose Analyzer (Fullerton, Calif., USA). Plasma insulin levels were measured using a RIA kit from Linco Research Inc. (St. Charles, Mo., USA). Phospholipids were measured by the enzymatic method of bioMérieux, Marcy-l {grave over ( )}Etoile, France, Triacylglycerol by the Technicon Method no. SA4-0324L90, USA and Cholesterol by the Technicon Method no. SA4-0305L90, USA.
# as §1
# Data are means±SD of six animals in both the control- and the experimental group. Free fatty acids (FFA) and ketone bodies ([…]) were measured in plasma and 3-hydroxy-3-methylglutaryl (HMG) -CoA synthase activities were measured in mitochondrial fractions prepared from the liver from 21 week-old male obese Zucker (fa/fa) rats given either a standard diet (control) or a standard diet enriched with 0.15% TTA for 15 days.
substance,measurement,setting,value
Tetradecylthioacetic acid [TTA],Activity and mRNA levels of CPT-I,[1]; 21 days (FIG. 8B),increase
same,Activity and mRNA levels of CPT-II,[1]; 21 days (FIG. 8C),increase
same,Increase of liver fatty acid oxidation,"[1]; 21 days, palmitoyl-CoA and palmitoyl-L-carnitine as substrates (FIG. 8A)",more than 7 fold
same,Chromosomal aberrations in cultured chinese hamster ovary cells,[2],no aberrations were induced
same,HMG-CoA synthase activity (nmol/min/mg protein),old obese Zucker rats; liver mitochondrial fractions,27 ± 6 nmol/min/mg protein
same,4-OH butyrate,old obese Zucker rats; plasma,3.44 ± 1.37 mmol/L
same,FFA (mEq/L),old obese Zucker rats; plasma,0.53 ± 0.21 mEq/L
same,FFA/ketone ratio,old obese Zucker rats; plasma,0.17 ± 0.09
